Results taken from ChEMBL document CHEMBL3272206, “Importance of the aromatic ring in adrenergic amines. 2. Synthesis and adrenergic activity of some nonaromatic six- and eight-membered ring analogs of beta-phenylethanolamine” (J Med Chem, 1976).
Calls of active or inactive are those of the source. No cut-off for these calls is given here.

B1: Phenylethanolamine N-methyltransferase (Bos taurus), P10938 (protein)
chain: MSGTDRSQAAGAVPDSDPGLAAVSSAYQRFEPRAYLRNNYAPPRGDLSCPDGVGPWKLRCLAQTFATGEVSGRTLIDIGSGPTIYQLLSACAHFEDITMTDFLEVNRQELRLWLREEPGAFDWSVYSQHVCLIEGKGESWQEKECQLRARVKRILPIDVHRPQPLGAGGLAPLPADALVSAFCLEAVSPDLASFQRALDHITTLLRPGGHLLLIGALEESWYLAGEARLAVVPVREEEVREALVRTATRCGICARTPMPAHLQTGVDDVKGIFFTRAQKKVGV

Tests used:
[1] = species: Rattus norvegicus; test: Adrenergic activity in reserpine-pretreated albino Sprague-Dawley rat vas deferens assessed as contractile response; assay type: functional, tissue-based
[2] = system: Vas deferens; test: Adrenergic activity in reserpine-pretreated albino Sprague-Dawley rat vas deferens assessed as potentiation of norepinephrine-induced contractile response at 30 uM; assay type: functional, tissue-based
[3] = species: Rattus norvegicus; test: Adrenergic activity in albino Sprague-Dawley rat vas deferens assessed as contractile response at 0.3 mM measured after 1 to 5 mins; assay type: functional, tissue-based
[4] = substrate: NCC(O)C1=C/CCCC/C=C\1; test: (§1) Activity at PNMT in bovine adrenal medulla using DL-beta-phenylethanolamine and SAM-14CH3 as substrate by Michaelis-Menten analysis; details: Bos taurus
[5] = substrate: NCC(O)c1ccccc1; test: as §1; details: Bos taurus
[6] = substrate: NCC(O)C1CCCCC1; test: as §1; details: Bos taurus
[7] = substrate: NCC(O)/C1=C/CC/C=C\CC1; test: as §1; details: Bos taurus
[8] = substrate: NCC(O)C1CC=CCC1; test: as §1; details: Bos taurus
[9] = substrate: NCC(O)C1CCCCCCC1; test: as §1; details: Bos taurus
[10] = substrate: NCC(O)C1=C/C=C\C=C/C=C\1; test: as §1; details: Bos taurus
[11] = substrate: NCC(O)C1=C/CCCC/C=C\1; test: (§2) Activity at PNMT in bovine adrenal medulla using DL-beta-phenylethanolamine and SAM-14CH3 as substrate measured per mg of protein by Michaelis-Menten analysis; details: Bos taurus
[12] = substrate: NCC(O)c1ccccc1; test: as §2; details: Bos taurus
[13] = substrate: NCC(O)C1CCCCC1; test: as §2; details: Bos taurus
[14] = substrate: NCC(O)/C1=C/CC/C=C\CC1; test: as §2; details: Bos taurus
[15] = substrate: NCC(O)C1CC=CCC1; test: as §2; details: Bos taurus
[16] = substrate: NCC(O)C1CCCCCCC1; test: as §2; details: Bos taurus
[17] = substrate: NCC(O)C1=C/C=C\C=C/C=C\1; test: as §2; details: Bos taurus

Molecule | Activity [1] | Activity [2] | Activity [3] | further results
NCC(O)C1CC=CCC1 (stereo not given) | inactive | Active | Active | 
NCC(O)C1CCCCCCC1 (stereo not given) | inactive | Active | Active | 
NCC(O)C1CCCCC1 (stereo not given) | inactive | Active | Active | 
NCC(O)c1ccccc1 (stereo not given) | inactive | Active | Active | 
NCC(O)C1=C/CCCC/C=C\1 (stereo not given) | inactive | Active | Active | 
NCC(O)/C1=C/CC/C=C\CC1 (stereo not given) | inactive |  | Active | 
NCC(O)C1/C=C\CCCCC1 (stereo not given) | inactive | Active | Active | 
NCC(O)C1=C/C=C\C=C/C=C\1 (stereo not given) | inactive | Active | Active | 
C[C@@H](N)[C@@H](O)c1ccccc1 | inactive | Active | Active | 
B1 |  |  |  | Km [4]: 128 µM; Km [5]: 136 µM; Km [6]: 40 µM; Km [7]: 155 µM; Km [8]: 57 µM; Km [9]: 26 µM; Km [10]: 430 µM; Vmax [11]: 2.61 nmol/min; Vmax [12]: 2.1 nmol/min; Vmax [13]: 0.99 nmol/min; Vmax [14]: 2.75 nmol/min; Vmax [15]: 1.37 nmol/min; Vmax [16]: 0.96 nmol/min; Vmax [17]: 1.73 nmol/min
